Measured values: ChEMBL document CHEMBL1201862, “PubChem BioAssay data set” (2004)
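Method: 48-hour compound exposure of cells in 96-well plates, five concentrations, linear interpolation of endpoints. Abbreviation: GI50, concentration required for 50% inhibition of growth.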 Activity calls are given as the source filed them. Rule as the data show it: active = GI50 up to about 1.1 µM and inactive = higher.

Assays:
Assay in all cases: inhibition of tumour cell growth, NCI panel, 48 h
[1] = system: OVCAR-3
[2] = system: ACHN
[3] = system: TK-10
[4] = system: M14
[5] = system: UACC-257
[6] = system: SN12C
[7] = system: RXF 393
[8] = system: A498
[9] = system: Malme-3M
[10] = system: NCI-H226
[11] = system: CAKI-1
[12] = system: MOLT-4
[13] = system: SF-268
[14] = system: NCI-H522
[15] = system: A549
[16] = system: SK-MEL-2
[17] = system: HT-29
[18] = system: OVCAR-4
[19] = system: OVCAR-5
[20] = system: MDA-N

## CC1=C(O)C(=O)C=C2C1=CC=C1[C@@]2(C)CC[C@@]2(C)[C@@H]3C[C@](C)(C(=O)O)CC[C@]3(C)CC[C@]12C [CELASTROL]
[1]
  GI50: 0.0264 µM (active)
[2]
  GI50: 0.0169 µM (active)
[3]
  GI50: < 0.0105 µM (active)
[4]
  GI50: 0.0449 µM (active)
[5]
  GI50: 0.0256 µM (active)
[6]
  GI50: 0.0376 µM (active)
[7]
  GI50: 0.0111 µM (active)
[8]
  GI50: 0.0335 µM (active)
[9]
  GI50: 0.0352 µM (active)
[10]
  GI50: 0.16 µM (active)
[11]
  GI50: 0.0135 µM (active)
[12]
  GI50: 0.0124 µM (active)
[13]
  GI50: 0.0446 µM (active)
[14]
  GI50: 0.0143 µM (active)
[15]
  GI50: 0.422 µM (active)
[16]
  GI50: 0.119 µM (active)
[17]
  GI50: 0.033 µM (active)
[18]
  GI50: 0.0188 µM (active)
[19]
  GI50: 0.18 µM (active)
[20]
  GI50: 0.0234 µM (active)

## CCCCCCCCCCCCCCCCNc1ccn(C2CC(O)C(COC(c3ccccc3)(c3ccccc3)c3ccc(OC)cc3)O2)c(=O)n1 (stereo not given)
[1]
  GI50: > 100 µM (inactive)
[2]
  GI50: > 100 µM (inactive)
[3]
  GI50: > 100 µM (inactive)
[4]
  GI50: > 100 µM (inactive)
[5]
  GI50: > 10 µM (inactive)
[6]
  GI50: > 100 µM (inactive)
[7]
  GI50: > 100 µM (inactive)
[8]
  GI50: > 100 µM (inactive)
[9]
  GI50: > 100 µM (inactive)
[10]
  GI50: > 100 µM (inactive)
[11]
  GI50: > 100 µM (inactive)
[12]
  GI50: 49.3 µM (inactive)
[13]
  GI50: > 100 µM (inactive)
[14]
  GI50: > 100 µM (inactive)
[15]
  GI50: > 100 µM (inactive)
[16]
  GI50: > 100 µM (inactive)
[17]
  GI50: > 100 µM (inactive)
[18]
  GI50: > 100 µM (inactive)
[19]
  GI50: > 100 µM (inactive)
[20]
  GI50: > 100 µM (inactive)

## CCOC(=O)Cc1nc2c(O)ncnc2n1C1OC(COC(C)=O)C(OC(C)=O)C1OC(C)=O (stereo not given)
[1]
  GI50: > 100 µM (inactive)
[2]
  GI50: > 100 µM (inactive)
[3]
  GI50: > 100 µM (inactive)
[4]
  GI50: > 100 µM (inactive)
[5]
  GI50: > 100 µM (inactive)
[6]
  GI50: > 100 µM (inactive)
[7]
  GI50: > 100 µM (inactive)
[8]
  GI50: > 100 µM (inactive)
[9]
  GI50: > 100 µM (inactive)
[10]
  GI50: > 100 µM (inactive)
[11]
  GI50: > 100 µM (inactive)
[12]
  GI50: > 100 µM (inactive)
[13]
  GI50: > 100 µM (inactive)
[14]
  GI50: > 100 µM (inactive)
[15]
  GI50: > 100 µM (inactive)
[16]
  GI50: > 100 µM (inactive)
[17]
  GI50: > 100 µM (inactive)
[18]
  GI50: > 100 µM (inactive)
[19]
  GI50: > 100 µM (inactive)
[20]
  GI50: > 100 µM (inactive)

## COC(=O)c1sc2c(c1C(=O)OC)/C(=N/C(C)(C)C)S/C2=N\C(C)(C)C
[1]
  GI50: 20.3 µM (inactive)
[2]
  GI50: 18.7 µM (inactive)
[3]
  GI50: 17.2 µM (inactive)
[4]
  GI50: 16.7 µM (inactive)
[5]
  GI50: 17.9 µM (inactive)
[6]
  GI50: 16.6 µM (inactive)
[7]
  GI50: 4.02 µM (inactive)
[8]
  GI50: 17.8 µM (inactive)
[9]
  GI50: 20.7 µM (inactive)
[10]
  GI50: 16.3 µM (inactive)
[11]
  GI50: 17.2 µM (inactive)
[12]
  GI50: 15.1 µM (inactive)
[13]
  GI50: 19.1 µM (inactive)
[14]
  GI50: 18.5 µM (inactive)
[15]
  GI50: 17.4 µM (inactive)
[16]
  GI50: 17.1 µM (inactive)
[17]
  GI50: 16.4 µM (inactive)
[18]
  GI50: 17.7 µM (inactive)
[19]
  GI50: 20.6 µM (inactive)
[20]
  GI50: 17.9 µM (inactive)

## N/C(=N\O)N/N=C/c1cc(Br)cc(Br)c1O
[1]
  GI50: 2.37 µM (inactive)
[2]
  GI50: 1.95 µM (inactive)
[3]
  GI50: 5.35 µM (inactive)
[4]
  GI50: 2.43 µM (inactive)
[5]
  GI50: 14 µM (inactive)
[6]
  GI50: 1.86 µM (inactive)
[7]
  GI50: 4.32 µM (inactive)
[8]
  GI50: 3.96 µM (inactive)
[9]
  GI50: 2.96 µM (inactive)
[10]
  GI50: 1.29 µM (inactive)
[11]
  GI50: 0.461 µM (active)
[12]
  GI50: 1.12 µM (active)
[13]
  GI50: 1.75 µM (inactive)
[14]
  GI50: 16.2 µM (inactive)
[15]
  GI50: 5.27 µM (inactive)
[16]
  GI50: 8.04 µM (inactive)
[17]
  GI50: 11.4 µM (inactive)
[18]
  GI50: 4.23 µM (inactive)
[19]
  GI50: 9.86 µM (inactive)
[20]
  GI50: 10.8 µM (inactive)

## Cc1ccc([N+](=O)[O-])c2c(NCCCN(C)C)ccnc12
[1]
  GI50: 33.1 µM (inactive)
[2]
  GI50: 57 µM (inactive)
[3]
  GI50: > 100 µM (inactive)
[4]
  GI50: > 59.2 µM (inactive)
[5]
  GI50: 39.2 µM (inactive)
[6]
  GI50: 44.3 µM (inactive)
[7]
  GI50: > 100 µM (inactive)
[8]
  GI50: 61.4 µM (inactive)
[9]
  GI50: 17 µM (inactive)
[10]
  GI50: > 100 µM (inactive)
[11]
  GI50: > 89.5 µM (inactive)
[12]
  GI50: > 100 µM (inactive)
[13]
  GI50: > 95.9 µM (inactive)
[14]
  GI50: 19.6 µM (inactive)
[15]
  GI50: > 92 µM (inactive)
[16]
  GI50: 36.6 µM (inactive)
[17]
  GI50: 31 µM (inactive)
[18]
  GI50: 22.4 µM (inactive)
[19]
  GI50: > 100 µM (inactive)
[20]
  GI50: 33.5 µM (inactive)
